PMC11169557, “The Goldilocks paradigm: comparing classical machine learning, large language models, and few-shot learning for drug discovery applications” (Communications Chemistry, 2024)
pIC50: −log10 of the molar value. Counter-ions that a name gives are not always drawn.

Molecular target: MARK1 (Homo sapiens, UniProt Q9P0L2)
Test: MARK1 inhibition, IC50 determination (dose-response) using Z'-LYTE assay
Format: biochemical
Settings: for pIC50: Z'-LYTE assay, non-linear regression (3-parameters); for Active (Measured): hits of the initial screen followed up with dose-response curves, 1 = true MARK1 inhibitor; for MARK1 inhibitor (result in words): out of the 13 tested compounds

Chain of MARK1 (Q9P0L2 whole entry): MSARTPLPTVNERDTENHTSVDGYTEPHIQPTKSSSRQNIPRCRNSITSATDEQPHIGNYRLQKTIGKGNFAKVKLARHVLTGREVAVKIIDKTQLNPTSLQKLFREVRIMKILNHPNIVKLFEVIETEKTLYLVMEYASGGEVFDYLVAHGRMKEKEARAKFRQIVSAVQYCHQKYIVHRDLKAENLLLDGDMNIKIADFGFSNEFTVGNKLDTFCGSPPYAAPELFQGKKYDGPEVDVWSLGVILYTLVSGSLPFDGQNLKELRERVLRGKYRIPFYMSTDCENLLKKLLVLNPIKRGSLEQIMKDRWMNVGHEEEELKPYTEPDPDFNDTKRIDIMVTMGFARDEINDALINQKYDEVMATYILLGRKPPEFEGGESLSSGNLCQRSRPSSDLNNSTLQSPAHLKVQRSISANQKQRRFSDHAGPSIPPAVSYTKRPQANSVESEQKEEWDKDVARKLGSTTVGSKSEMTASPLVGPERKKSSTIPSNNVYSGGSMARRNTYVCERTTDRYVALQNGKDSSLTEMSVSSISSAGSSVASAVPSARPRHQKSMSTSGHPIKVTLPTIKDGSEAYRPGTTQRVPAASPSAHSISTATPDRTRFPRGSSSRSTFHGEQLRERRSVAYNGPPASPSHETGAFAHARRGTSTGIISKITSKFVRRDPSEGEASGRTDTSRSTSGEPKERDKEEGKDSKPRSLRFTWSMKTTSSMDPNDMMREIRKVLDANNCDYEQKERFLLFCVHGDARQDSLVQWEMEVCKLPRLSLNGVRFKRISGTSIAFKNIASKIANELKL

Row | pIC50 | Active (Measured) | MARK1 inhibitor (result in words) | SMILES
1 | 6.73 | 1 | true novel MARK1 active inhibitors | O=C(Nc1c[nH]nc1-c1nc2ccc(CN3CCOCC3)cc2[nH]1)NC1CC1 [AT9283]
2 | 6.78 | 1 | true novel MARK1 active inhibitors | CCS(=O)(=O)N1CC(CC#N)(n2cc(-c3ncnc4[nH]ccc34)cn2)C1 [Baricitinib]
3 |  | 0 |  | Cc1cc(Nc2ncc(Cl)c(Nc3ccccc3S(=O)(=O)C(C)C)n2)c(OC(C)C)cc1C1CCNCC1 [Ceritinib]
4 |  | 0 |  | C[C@@H](Oc1cc(-c2cnn(C3CCNCC3)c2)cnc1N)c1c(Cl)ccc(F)c1Cl [Crizotinib]
5 |  | 0 |  | CC(C)(C)NC[C@H](O)COc1cccc2c1CCCC2=O.Cl [Levobunolol (hydrochloride)]
6 |  | 1 | true novel MARK1 active inhibitors | C[C@@H]1CCN(C(=O)CC#N)C[C@@H]1N(C)c1ncnc2[nH]ccc12 [Tofacitinib citrate]
7 |  | 0 |  | COc1cc(O)c2c(c1)oc(=O)c1c3cc(O)c(O)cc3oc21 [Wedelolactone]

The remaining lines, values behind:

Row | SMILES | pIC50 | Active (Measured) | MARK1 inhibitor (result in words)
8 | COc1cc(Nc2c(C#N)cnc3cc(OCCCN4CCN(C)CC4)c(OC)cc23)c(Cl)cc1Cl [Bosutinib] |  | 0 | 
9 | Cc1cc(C(C#N)c2ccc(Cl)cc2)c(Cl)cc1NC(=O)c1cc(I)cc(I)c1O (stereo not drawn) [Closantel] |  | 0 | 
10 | CN1CCN(c2ccc(Nc3ncc4cc(C#N)c(=O)n(C5CCCC5)c4n3)cc2)CC1 [ON123300] | 6.66 | 1 | true novel MARK1 active inhibitors
11 | CC[C@@H]1CN(C(=O)NCC(F)(F)F)C[C@@H]1c1cnc2cnc3[nH]ccc3n12 [Upadacitinib] | 6.49 | 1 | true novel MARK1 active inhibitors
12 | CCCCCCCCc1ccc(CCC(N)(CO)CO)cc1 [fingolimod] |  | 0 | 
